Data on 33 compounds can be found in ChEMBL document CHEMBL4219199, “Synthesis and evaluation of aminobenzothiazoles as blockers of N- and T-type calcium channels” (Bioorg Med Chem, 2018).

Some results are limits rather than exact numbers.

In general, IC50 refers to the concentration at which inhibition is half-maximal. The term half-life denotes the time in which the quantity being followed falls by half. Read a low half-life as rapid decline. By EC50 is commonly meant the concentration that produces a half-maximal response.

Data set [1] addresses Voltage-dependent N-type calcium channel subunit alpha-1B (Homo sapiens, UniProt Q00975). The data set is described as follows: Inhibition of Cav2.2 in human SH-SY5Y cells assessed as decrease in KCl-induced calcium mobilization measured after 600 secs post compound addition and 300 secs post KCl addition in presence of CaV1 blocker nifedipine by calcium 4 dye-based FLIPR assay. The class given is cell-based. A general note: A change in cytosolic calcium serves as a functional read-out for many receptors and channels.

Data set [2] concerns the target Voltage-dependent T-type calcium channel subunit alpha-1H (Homo sapiens, UniProt O95180). The data set is described as follows: Inhibition of recombinant human Cav3.2-alpha1 expressed in HEK293T cells assessed as decrease in KCl-induced calcium mobilization measured after 600 secs post compound addition and 300 secs post KCl addition by calcium 4 dye-based FLIPR assay. The data set is classed as cell-based.

A short description of data set [3]: Metabolic stability in rat plasma assessed as parent compound remaining at 120 uM after 24 hrs by HPLC analysis relative to control. The data set is classed as ADME, cell-free. As to conditions: read-out: Stability.
The nature of data set [4]: Half life in rat plasma. The class given is ADME, cell-free.
The target of data set [5] is Voltage-dependent N-type calcium channel subunit alpha-1B (Rattus norvegicus, UniProt Q02294). Kind of data set: Displacement of [125I]GVIA from rat brain membrane Cav2.2 after 1 hr by gamma counting method.

Voltage-dependent T-type calcium channel subunit alpha-1H, sequence (O95180 whole entry): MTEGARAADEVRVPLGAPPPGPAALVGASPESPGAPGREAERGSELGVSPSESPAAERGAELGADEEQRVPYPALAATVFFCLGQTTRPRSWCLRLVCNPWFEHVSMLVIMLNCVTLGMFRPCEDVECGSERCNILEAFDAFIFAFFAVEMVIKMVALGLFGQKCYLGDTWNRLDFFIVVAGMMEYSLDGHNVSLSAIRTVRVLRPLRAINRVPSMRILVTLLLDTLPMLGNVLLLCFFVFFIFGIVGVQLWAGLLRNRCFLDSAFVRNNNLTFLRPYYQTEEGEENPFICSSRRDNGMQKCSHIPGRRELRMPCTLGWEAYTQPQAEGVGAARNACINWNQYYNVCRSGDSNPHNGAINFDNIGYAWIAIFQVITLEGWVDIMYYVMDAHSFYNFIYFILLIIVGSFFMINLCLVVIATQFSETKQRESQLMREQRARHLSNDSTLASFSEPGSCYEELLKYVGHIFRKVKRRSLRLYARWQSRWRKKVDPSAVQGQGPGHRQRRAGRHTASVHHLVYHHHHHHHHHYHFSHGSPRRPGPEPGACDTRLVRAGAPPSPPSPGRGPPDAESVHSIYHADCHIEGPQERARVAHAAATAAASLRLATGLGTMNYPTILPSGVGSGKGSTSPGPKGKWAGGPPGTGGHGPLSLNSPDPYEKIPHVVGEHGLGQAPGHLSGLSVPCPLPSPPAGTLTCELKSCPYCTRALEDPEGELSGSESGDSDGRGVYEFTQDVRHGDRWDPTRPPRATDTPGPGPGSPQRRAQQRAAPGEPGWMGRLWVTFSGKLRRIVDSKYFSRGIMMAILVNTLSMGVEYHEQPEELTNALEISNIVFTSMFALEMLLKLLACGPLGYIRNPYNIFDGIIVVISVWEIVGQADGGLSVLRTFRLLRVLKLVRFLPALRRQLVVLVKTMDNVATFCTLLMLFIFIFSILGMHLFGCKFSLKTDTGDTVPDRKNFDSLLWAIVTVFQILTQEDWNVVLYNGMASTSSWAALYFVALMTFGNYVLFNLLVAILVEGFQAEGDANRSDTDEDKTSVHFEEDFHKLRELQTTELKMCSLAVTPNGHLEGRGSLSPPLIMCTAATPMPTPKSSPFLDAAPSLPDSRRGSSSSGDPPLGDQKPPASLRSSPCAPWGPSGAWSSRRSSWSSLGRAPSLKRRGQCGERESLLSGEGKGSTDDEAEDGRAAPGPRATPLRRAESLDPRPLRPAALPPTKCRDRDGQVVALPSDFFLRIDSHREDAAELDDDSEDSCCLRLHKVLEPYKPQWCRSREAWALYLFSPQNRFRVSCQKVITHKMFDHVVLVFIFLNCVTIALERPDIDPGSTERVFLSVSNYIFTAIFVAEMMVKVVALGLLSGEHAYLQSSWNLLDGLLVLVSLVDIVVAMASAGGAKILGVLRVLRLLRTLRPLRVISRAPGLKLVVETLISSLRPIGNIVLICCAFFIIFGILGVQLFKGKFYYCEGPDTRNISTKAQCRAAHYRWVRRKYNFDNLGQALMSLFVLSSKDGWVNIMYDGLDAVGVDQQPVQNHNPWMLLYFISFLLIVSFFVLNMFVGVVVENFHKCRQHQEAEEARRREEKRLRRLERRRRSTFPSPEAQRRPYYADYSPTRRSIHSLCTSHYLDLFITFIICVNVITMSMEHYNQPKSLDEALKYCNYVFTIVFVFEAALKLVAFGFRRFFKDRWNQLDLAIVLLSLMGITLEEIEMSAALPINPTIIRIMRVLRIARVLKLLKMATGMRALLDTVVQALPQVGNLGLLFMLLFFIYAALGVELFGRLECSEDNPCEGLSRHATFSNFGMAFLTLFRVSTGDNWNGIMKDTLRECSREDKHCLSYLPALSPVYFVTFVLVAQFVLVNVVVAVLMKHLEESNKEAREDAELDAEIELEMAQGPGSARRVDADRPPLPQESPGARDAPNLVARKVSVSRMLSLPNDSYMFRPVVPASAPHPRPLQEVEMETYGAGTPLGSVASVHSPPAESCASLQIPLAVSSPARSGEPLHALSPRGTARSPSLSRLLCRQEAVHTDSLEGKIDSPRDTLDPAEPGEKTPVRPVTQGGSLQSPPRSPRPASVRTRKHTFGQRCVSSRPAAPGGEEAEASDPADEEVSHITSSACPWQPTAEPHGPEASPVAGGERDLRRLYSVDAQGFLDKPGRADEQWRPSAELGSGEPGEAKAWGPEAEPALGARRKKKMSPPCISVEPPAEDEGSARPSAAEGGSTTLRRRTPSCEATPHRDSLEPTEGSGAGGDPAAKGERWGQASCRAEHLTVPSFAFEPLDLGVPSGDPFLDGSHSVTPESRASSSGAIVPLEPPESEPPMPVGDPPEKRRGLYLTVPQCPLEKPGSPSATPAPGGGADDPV
Voltage-dependent N-type calcium channel subunit alpha-1B (Homo sapiens, UniProt Q00975), sequence (Q00975 whole entry): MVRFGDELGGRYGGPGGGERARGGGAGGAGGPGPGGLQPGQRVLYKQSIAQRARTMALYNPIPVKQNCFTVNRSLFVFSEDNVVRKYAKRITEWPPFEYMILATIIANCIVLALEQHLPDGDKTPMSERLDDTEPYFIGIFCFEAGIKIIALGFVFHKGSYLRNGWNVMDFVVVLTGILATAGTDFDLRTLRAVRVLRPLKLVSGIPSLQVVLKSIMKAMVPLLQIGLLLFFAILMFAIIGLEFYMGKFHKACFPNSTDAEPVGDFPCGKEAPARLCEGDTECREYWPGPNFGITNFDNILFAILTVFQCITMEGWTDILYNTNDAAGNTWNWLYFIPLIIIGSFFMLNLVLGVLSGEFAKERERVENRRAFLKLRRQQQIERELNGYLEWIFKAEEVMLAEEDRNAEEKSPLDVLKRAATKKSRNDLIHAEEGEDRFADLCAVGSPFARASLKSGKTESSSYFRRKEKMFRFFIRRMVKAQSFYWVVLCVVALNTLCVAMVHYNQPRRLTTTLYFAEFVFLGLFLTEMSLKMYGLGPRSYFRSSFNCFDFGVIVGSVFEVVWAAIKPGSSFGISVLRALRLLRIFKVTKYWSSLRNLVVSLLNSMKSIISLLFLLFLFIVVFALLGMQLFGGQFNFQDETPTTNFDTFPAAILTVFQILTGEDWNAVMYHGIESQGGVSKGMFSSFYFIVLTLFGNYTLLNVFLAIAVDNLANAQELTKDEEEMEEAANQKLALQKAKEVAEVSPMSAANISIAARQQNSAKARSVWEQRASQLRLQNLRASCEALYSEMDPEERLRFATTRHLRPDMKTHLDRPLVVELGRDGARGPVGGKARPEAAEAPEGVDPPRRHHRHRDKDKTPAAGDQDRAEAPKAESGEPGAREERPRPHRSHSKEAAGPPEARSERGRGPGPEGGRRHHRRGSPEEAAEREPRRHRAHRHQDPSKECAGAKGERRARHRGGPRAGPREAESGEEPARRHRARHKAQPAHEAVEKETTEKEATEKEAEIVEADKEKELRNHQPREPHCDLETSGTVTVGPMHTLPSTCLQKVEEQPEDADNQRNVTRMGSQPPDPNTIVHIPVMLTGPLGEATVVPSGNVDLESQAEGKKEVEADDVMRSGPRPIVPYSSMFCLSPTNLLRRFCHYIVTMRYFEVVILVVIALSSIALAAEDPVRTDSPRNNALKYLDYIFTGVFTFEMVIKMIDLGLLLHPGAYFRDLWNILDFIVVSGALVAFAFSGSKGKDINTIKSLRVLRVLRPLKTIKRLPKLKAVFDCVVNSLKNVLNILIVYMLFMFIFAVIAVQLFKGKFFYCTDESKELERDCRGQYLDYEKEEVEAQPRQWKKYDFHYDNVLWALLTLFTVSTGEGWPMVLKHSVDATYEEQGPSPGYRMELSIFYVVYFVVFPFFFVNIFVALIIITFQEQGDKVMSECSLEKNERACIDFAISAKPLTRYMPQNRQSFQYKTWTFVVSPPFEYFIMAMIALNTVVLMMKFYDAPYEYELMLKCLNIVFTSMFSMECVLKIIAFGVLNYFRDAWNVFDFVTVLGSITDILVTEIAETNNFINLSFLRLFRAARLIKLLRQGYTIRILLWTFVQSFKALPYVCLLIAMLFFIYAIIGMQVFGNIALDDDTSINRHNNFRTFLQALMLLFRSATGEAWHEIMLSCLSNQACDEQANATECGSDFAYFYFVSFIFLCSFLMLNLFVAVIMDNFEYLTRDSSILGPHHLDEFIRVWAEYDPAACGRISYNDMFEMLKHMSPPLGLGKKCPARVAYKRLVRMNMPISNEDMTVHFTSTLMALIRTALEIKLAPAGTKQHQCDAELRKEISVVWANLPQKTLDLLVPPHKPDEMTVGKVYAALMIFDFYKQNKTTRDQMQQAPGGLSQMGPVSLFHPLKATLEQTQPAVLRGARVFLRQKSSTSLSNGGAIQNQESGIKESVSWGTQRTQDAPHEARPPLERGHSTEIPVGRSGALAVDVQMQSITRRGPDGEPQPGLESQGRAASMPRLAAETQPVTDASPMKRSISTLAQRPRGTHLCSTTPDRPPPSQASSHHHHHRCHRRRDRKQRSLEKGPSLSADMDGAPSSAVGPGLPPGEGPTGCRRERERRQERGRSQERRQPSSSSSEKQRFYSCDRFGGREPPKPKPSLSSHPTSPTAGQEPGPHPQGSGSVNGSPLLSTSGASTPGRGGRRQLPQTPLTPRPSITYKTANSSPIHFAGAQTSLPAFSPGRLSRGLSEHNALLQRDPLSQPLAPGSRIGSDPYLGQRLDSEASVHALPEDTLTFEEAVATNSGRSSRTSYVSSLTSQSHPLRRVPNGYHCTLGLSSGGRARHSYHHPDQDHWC

On to `NCCCOc1ccc(CNc2nc3ccc(Oc4cccc(C(F)(F)F)c4)cc3s2)cc1`, for which the figures for the IC50 in data set [1] and in data set [2] were 144 µM and 171 µM, respectively.
Taken in the same sequence, the figures for `CN(Cc1ccc(OCCCN)cc1)c1nc2ccc(Oc3ccc(O)cc3)cc2s1` were 117 µM and 165 µM.
In the case of `NCCCOc1ccc(CNc2nc3ccc(Oc4ccc(O)cc4)cc3s2)cc1`, the concentration for half-maximal inhibition (IC50) is 205 µM in data set [1] and 300 µM in data set [2].
For the compound `CN(Cc1ccc(OCCCNC(=N)N)cc1)c1nc2ccc(Oc3cccc(C(F)(F)F)c3)cc2s1.O=C(O)C(F)(F)F`, the IC50 in data set [1] amounted to 202 µM; in data set [2], 771 µM. In addition, in data set [3], the remaining at 24 h, 120 µM amounted to 95%. Also, the half-life in data set [4] was > 24 h.
For `N=C(N)NCCCOc1ccc(CNc2nc3ccc(Oc4ccc(O)cc4)cc3s2)cc1`, the figures for the 50% inhibitory concentration (IC50) in data set [1] and in data set [2] were 253 µM and 319 µM, respectively.
Taken in the same sequence, the figures for `CN(Cc1ccc(OCCCNC(=N)N)cc1)c1nc2ccc(Oc3ccc(F)cc3)cc2s1` were 100 µM and 521 µM.
Turning to `N=C(N)NCCCOc1ccc(CNc2nc3ccc(Oc4ccc(C(F)(F)F)cc4)cc3s2)cc1.O=C(O)C(F)(F)F`, the 50% inhibitory concentration (IC50) was determined as 167 µM in data set [1] and 195 µM in data set [2]. Moreover, in data set [3], the remaining at 24 h, 120 µM is 91%. In addition, in data set [4], the half-life is > 24 h.
As to `N=C(N)NCCCOc1ccc(CNc2nc3ccc(Oc4cccc(C(F)(F)F)c4)cc3s2)cc1`, the IC50 in data set [1] amounted to 130 µM; in data set [2], 270 µM.
Consider `CN(Cc1ccc(OCCCNC(=N)N)cc1)c1nc2ccc(Oc3ccccc3)cc2s1`, for which the IC50 in data set [1] came out at 113 µM; in data set [2] it was 498 µM.
For `CN(Cc1ccc(OCCCN)cc1)c1nc2ccc(Oc3ccccc3)cc2s1` the same measures were 49 µM and 95 µM.
Take `CN(Cc1ccc(OCCCN)cc1)c1nc2ccc(Oc3cccc(C(F)(F)F)c3)cc2s1.O=C(O)C(F)(F)F`: the IC50 in data set [1] turned out to be 77 µM; in data set [2], 239 µM. For the same compound, in data set [3], the remaining at 24 h, 120 µM is 100%. Also, the half-life in data set [4] is > 24 h.
In the case of `NC(N)=NCCCOc1ccc(CNc2nc3ccc(Oc4ccccc4)cc3s2)cc1`, the IC50 in data set [1] was found to be 103 µM; in data set [2], 166 µM.
For `CN(Cc1ccc(OCCCNC(=N)N)cc1)c1nc2ccc(Oc3ccc(C#N)cc3)cc2s1` the same measures were 143 µM and 153 µM.
For `CN(Cc1ccc(OCCCN)cc1)c1nc2ccc(Oc3ccc(C(F)(F)F)cc3)cc2s1` the same measures were 283 µM and 248 µM.
With `CN(Cc1ccc(OCCCNC(=N)N)cc1)c1nc2ccc(Oc3ccc(C(F)(F)F)cc3)cc2s1`, the IC50 in data set [1] stood at 185 µM; in data set [2], 212 µM.
Taken in the same sequence, the figures for `N=C(N)NCCCOc1ccc(CNc2nc3ccc(Oc4ccc(F)cc4)cc3s2)cc1` were 244 µM and 288 µM.
For `CN(Cc1ccc(OCCCNC(=N)N)cc1)c1nc2ccc(Oc3ccc(O)cc3)cc2s1` the same measures were 432 µM and 332 µM.
Taken in the same sequence, the figures for `CN(Cc1ccc(OCCCN)cc1)c1nc2ccc(Oc3ccc(C#N)cc3)cc2s1` were 65 µM and 328 µM.
For the compound `CN(C)CCCOc1ccc(CN(C)c2nc3ccc(Oc4ccc(C(F)(F)F)cc4)cc3s2)cc1`, the IC50 in data set [1] stood at 46 µM; in data set [2], 54 µM.
`CN(C)CCCOc1ccc(CNc2nc3ccc(Oc4ccc(F)cc4)cc3s2)cc1`: the results for the IC50 in data set [1] and in data set [2] were 40 µM and > 1000 µM, respectively.
For `CN(C)CCCOc1ccc(CNc2nc3ccc(Oc4ccc(C#N)cc4)cc3s2)cc1` the same measures were 105 µM and 41 µM.
For `CN(Cc1ccc(OCCCN)cc1)c1nc2ccc(Oc3ccc(F)cc3)cc2s1` the same measures were 98 µM and 492 µM.
Taken in the same sequence, the figures for `CN(C)CCCOc1ccc(CN(C)c2nc3ccc(Oc4ccc(C#N)cc4)cc3s2)cc1` were 69 µM and 64 µM.
For `CC(C)[C@H]1c2ccc(F)cc2CC[C@@]1(CCN(C)CCCc1nc2ccccc2[nH]1)OC(=O)C1CC1`, the IC50 in data set [1] was determined as 7 µM.
With `CN(C)CCCOc1ccc(CNc2nc3ccc(Oc4cccc(C(F)(F)F)c4)cc3s2)cc1`, the IC50 in data set [1] was 51 µM; in data set [2], 110 µM.
For `NCCCOc1ccc(CNc2nc3ccc(Oc4ccc(C(F)(F)F)cc4)cc3s2)cc1` the same measures were 59 µM and 112 µM.
On to `NCCCOc1ccc(CNc2nc3ccc(Oc4ccc(F)cc4)cc3s2)cc1.O=C(O)C(F)(F)F`, for which the half-maximal inhibitory concentration (IC50) in data set [1] came to 106 µM; in data set [2], 688 µM. Moreover, the remaining at 24 h, 120 µM in data set [3] came out at 75%. In addition, in data set [4], the half-life is > 24 h.
For the compound `NCCCOc1ccc(CNc2nc3ccc(Oc4ccccc4)cc3s2)cc1`, the IC50 in data set [1] is 218 µM; in data set [2], > 1000 µM.
For `N#Cc1ccc(Oc2ccc3nc(NCc4ccc(OCCCNC(=N)N)cc4)sc3c2)cc1` the same measures were 368 µM and 326 µM.
Taken in the same sequence, the figures for `N#Cc1ccc(Oc2ccc3nc(NCc4ccc(OCCCN)cc4)sc3c2)cc1` were 41 µM and 109 µM.
For the compound `NCCCOc1ccccc1C(=O)N(Cc1ccc(OCCCN=C(N)N)cc1)c1nc2ccc(Oc3ccc(O)cc3)cc2s1`, the EC50 in data set [5] came to 5.7 µM.
Same read-out and setting: next, `NCCCOc1ccc(CN(C(=O)c2ccccc2OCCCN)c2nc3ccc(Oc4ccc(O)cc4)cc3s2)cc1`: 5.4 µM.
For `O=C(CC(c1ccccc1)c1ccccc1)N1CCN(C(c2ccccc2)c2ccccc2)CC1` [Z160], the IC50 in data set [1] turned out to be 39 µM; in data set [2], 45 µM.
